Data taken from patent US10208074B2, “Pyrazole compounds and method for making and using the compounds” (Rigel Pharmaceuticals, Inc., priority 2015, dated 2019).
Counter-ions that a name gives are not always drawn. Like-named read-outs stand apart in the source and are kept apart here.

Tests used:
[1] = tested on: IL-23p19; test: LPS induced IL23p19 in THP-1 cells (with IFNγ primed) assay; format: cell-based, Human; settings: Homo sapiens, THP-1, 18 h, THP-1 cells, IFNγ primed, LPS 1 ug/mL, 18 hours, 10 pt; read-out: IL23-p19 ELISA, THP1-IFNy, LPS, 10 pt EC50
Procedure, shortened: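 Readout is secreted IL-23p19, quantified by chemiluminescent sandwich ELISA after 18 h LPS (1 ug/mL) stimulation of THP-1 cells that had been IFNγ-primed (50 ng/mL, ~18 h) and given compound 1 h beforehand at 37 °C. EC50 derived by curve fit; cytotoxicity tracked with Cell Titer Glo.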

[2] = tested on: IL-23 (p19/p40); test: IL23-p19 ELISA, Dendritic, LPS (compound screening using DC cells); format: cell-based, Human; settings: PBMC-derived DC cells, IFNγ primed, LPS 1 μg/ml, 18 hours, 10 pt, read-out: IL23-p19 ELISA, Dendritic, LPS, 10 pt, EC50
Procedure, shortened: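 IL-23 in supernatants quantified by sandwich ELISA (anti-p19 capture, biotinylated anti-p40 detection, chemiluminescent readout) after 18 h LPS (1 μg/ml) stimulation. Cells were monocyte-derived DCs (GM-CSF/IL-4, 7 d), IFNγ-primed 24 h and given compound 1 h before LPS; viability by CellTiter Glo.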

CCOCCn1cc(NC(=O)c2ccc(-c3cnn(CC)c3)o2)c(-c2ccccn2)n1 [Compound I-39, N-(1-(2-ethoxyethyl)-3-(pyridin-2-yl)-1H-pyrazol-4-yl)-5-(1-ethyl-1H-pyrazol-4-yl)furan-2-carboxamide formate]
EC50 [1]: 1.95 µM | EC50 ([2]; Homo sapiens, 18 h): 4.32 µM

CCO[C@H]1C[C@@H](n2cc(NC(=O)c3csc(-c4cn[nH]c4)n3)c(-c3cc(F)ccn3)n2)C1 [II-158, N-(1-((cis)-3-ethoxycyclobutyl)-3-(4-fluoropyridin-2-yl)-1H-pyrazol-4-yl)-2-(1H-pyrazol-4-yl)thiazole-4-carboxamide]
EC50 [1]: 0.144 µM | EC50 ([2]; Homo sapiens, 18 h): 0.0921 µM

CCOCCn1cc(NC(=O)c2ccc(-c3cnn(C(=O)OC(C)(C)C)c3)o2)c(-c2ccccn2)n1 [Compound I-4, tert-butyl 4-(5-((1-(2-ethoxyethyl)-3-(pyridin-2-yl)-1H-pyrazol-4-yl)carbamoyl)furan-2-yl)-1H-pyrazole-1-carboxylate]
EC50 [1]: 0.713 µM | EC50 ([2]; Homo sapiens, 18 h): 0.619 µM

COCCOCCN(C(=O)c1ccc(-c2cnn(CCOCCOC)c2)o1)c1cn(CCOCCOC)nc1-c1ccccn1 [Compound I-50, N-(2-(2-methoxyethoxy)ethyl)-5-(1-(2-(2-methoxyethoxy)ethyl)-1H-pyrazol-4-yl)-N-(1-(2-(2-methoxyethoxy)ethyl)-3-(pyridin-2-yl)-1H-pyrazol-4-yl)furan-2-carboxamide formate]
EC50 [1]: 14.2 µM | EC50 ([2]; Homo sapiens, 18 h): 3.51 µM

CCO[C@H]1CC[C@H](n2cc(NC(=O)c3csc(-c4cn[nH]c4)n3)c(-c3nnco3)n2)CC1 [II-178, N-(1-((1r,4r)-4-ethoxycyclohexyl)-3-(1,3,4-oxadiazol-2-yl)-1H-pyrazol-4-yl)-2-(1H-pyrazol-4-yl)thiazole-4-carboxamide]
EC50 [1]: 0.119 µM | EC50 ([2]; Homo sapiens, 18 h): 0.0373 µM

CCOCCn1cc(NC(=O)c2csc(-c3cn[nH]c3)n2)c(-c2nccs2)n1 [II-109, N-(1-(2-ethoxyethyl)-3-(thiazol-2-yl)-1H-pyrazol-4-yl)-2-(1H-pyrazol-4-yl)thiazole-4-carboxamide]
EC50 [1]: 0.14 µM | EC50 ([2]; Homo sapiens, 18 h): 0.327 µM

CCO[C@H]1C[C@@H](n2cc(NC(=O)c3csc(-c4cn[nH]c4)n3)c(-c3ccc(F)cn3)n2)C1 [II-153, N-(1-((cis)-3-ethoxycyclobutyl)-3-(5-fluoropyridin-2-yl)-1H-pyrazol-4-yl)-2-(1H-pyrazol-4-yl)thiazole-4-carboxamide]
EC50 [1]: 0.749 µM | EC50 ([2]; Homo sapiens, 18 h): 0.141 µM

CCO[C@H]1C[C@@H](n2cc(NC(=O)c3ccc(-c4cn[nH]c4)o3)c(-c3cc(F)ccn3)n2)C1 [Compound I-148, N-(1-((1s,3s)-3-ethoxycyclobutyl)-3-(4-fluoropyridin-2-yl)-1H-pyrazol-4-yl)-5-(1H-pyrazol-4-yl)furan-2-carboxamide formate]
EC50 [1]: 0.173 µM | EC50 ([2]; Homo sapiens, 18 h): 0.11 µM

CCO[C@H]1C[C@@H](n2cc(NC(=O)c3ccc(-c4cn[nH]c4)o3)c(-c3nc(F)ccc3F)n2)C1 [Compound I-156, N-(3-(3,6-difluoropyridin-2-yl)-1-((1s,3s)-3-ethoxycyclobutyl)-1H-pyrazol-4-yl)-5-(1H-pyrazol-4-yl)furan-2-carboxamide]
EC50 [1]: 0.0595 µM | EC50 ([2]; Homo sapiens, 18 h): 0.105 µM

O=C(Nc1cn([C@H]2C[C@@H](OCC(F)(F)F)C2)nc1-c1ccccn1)c1ccc(-c2cn[nH]c2)o1 [Compound I-146, 5-(1H-pyrazol-4-yl)-N-(3-(pyridin-2-yl)-1-((1s,3s)-3-(2,2,2-trifluoroethoxy)cyclobutyl)-1H-pyrazol-4-yl)furan-2-carboxamide formate]
EC50 [1]: 0.149 µM | EC50 ([2]; Homo sapiens, 18 h): 0.37 µM

Cc1n[nH]cc1-c1nc(C(=O)Nc2cn(C3COC3)nc2-c2ccccn2)cs1 [II-41, 2-(3-methyl-1H-pyrazol-4-yl)-N-(1-(oxetan-3-yl)-3-(pyridin-2-yl)-1H-pyrazol-4-yl)thiazole-4-carboxamide, formic acid salt]
EC50 [1]: 0.0413 µM | EC50 ([2]; Homo sapiens, 18 h): 0.0188 µM

CCO[C@H]1C[C@@H](n2cc(NC(=O)c3csc(-c4cnn(COP(=O)(O)O)c4)n3)c(-c3cccc(F)n3)n2)C1 [II-173, (4-(4-((1-((cis)-3-ethoxycyclobutyl)-3-(6-fluoropyridin-2-yl)-1H-pyrazol-4-yl)carbamoyl)thiazol-2-yl)-1H-pyrazol-1-yl)methyl dihydrogen phosphate]
EC50 [1]: 0.0414 µM | EC50 ([2]; Homo sapiens, 18 h): 0.314 µM

CCO[C@H]1C[C@@H](n2cc(NC(=O)c3coc(-c4cn[nH]c4)n3)c(-c3ccccn3)n2)C1 [III-4, N-(1-((1s,3s)-3-ethoxycyclobutyl)-3-(pyridin-2-yl)-1H-pyrazol-4-yl)-2-(1H-pyrazol-4-yl)oxazole-4-carboxamide]
EC50 [1]: 0.0434 µM | EC50 ([2]; Homo sapiens, 18 h): 0.0369 µM

Cc1n[nH]cc1-c1ccc(C(=O)Nc2cn(C3COC3)nc2-c2ccccn2)o1 [Compound I-30, 5-(3-methyl-1H-pyrazol-4-yl)-N-(1-(oxetan-3-yl)-3-(pyridin-2-yl)-1H-pyrazol-4-yl)furan-2-carboxamide]
EC50 [1]: 0.038 µM | EC50 ([2]; Homo sapiens, 18 h): 0.0589 µM

Cn1cc(NC(=O)c2csc(-c3cn[nH]c3)n2)c(-c2ccccn2)n1 [II-26, N-(1-methyl-3-(pyridin-2-yl)-1H-pyrazol-4-yl)-2-(1H-pyrazol-4-yl)thiazole-4-carboxamide]
EC50 [1]: 0.0771 µM | EC50 ([2]; Homo sapiens, 18 h): 0.113 µM

Cn1cc(NC(=O)c2csc(-c3cnn(C(=O)OC4(C)CC4)c3)n2)c(-c2ccccn2)n1 [II-5, 1-methylcyclopropyl 4-(4-((1-methyl-3-(pyridin-2-yl)-1H-pyrazol-4-yl)carbamoyl)thiazol-2-yl)-1H-pyrazole-1-carboxylate]
EC50 [1]: 0.0902 µM | EC50 ([2]; Homo sapiens, 18 h): 0.157 µM

O=C(Nc1cn(C(F)F)nc1-c1ccccn1)c1csc(-c2cn[nH]c2)n1 [II-88, N-(1-(difluoromethyl)-3-(pyridin-2-yl)-1H-pyrazol-4-yl)-2-(1H-pyrazol-4-yl)thiazole-4-carboxamide]
EC50 [1]: 0.0965 µM | EC50 ([2]; Homo sapiens, 18 h): 0.39 µM

CN(C)[C@H]1C[C@@H](n2cc(NC(=O)c3ccc(-c4cn[nH]c4)o3)c(-c3ccccn3)n2)C1 [Compound I-34, N-(1-((1s,3s)-3-(dimethylamino)cyclobutyl)-3-(pyridin-2-yl)-1H-pyrazol-4-yl)-5-(1H-pyrazol-4-yl)furan-2-carboxamide formate]
EC50 [1]: 0.0138 µM | EC50 ([2]; Homo sapiens, 18 h): 0.0144 µM

O=C(Nc1cn(C2CCOC2)nc1-c1ccccn1)c1csc(-c2cn[nH]c2)n1 (centres unmarked) [II-43, 2-(1H-pyrazol-4-yl)-N-(3-(pyridin-2-yl)-1-(tetrahydrofuran-3-yl)-1H-pyrazol-4-yl)thiazole-4-carboxamide formic acid salt]
EC50 [1]: 0.0278 µM | EC50 ([2]; Homo sapiens, 18 h): 0.0502 µM

CCOCCn1cc(NC(=O)c2ccc(-c3cn[nH]c3)o2)c(-c2ccccn2)n1 [Compound I-37, N-(1-(2-ethoxyethyl)-3-(pyridin-2-yl)-1H-pyrazol-4-yl)-5-(1H-pyrazol-4-yl)furan-2-carboxamide formate]
EC50 [1]: 0.144 µM | EC50 ([2]; formate): 0.0174 µM

O=C(Nc1cn(CC(F)(F)F)nc1-c1ccccn1)c1csc(-c2cn[nH]c2)n1 [II-94, 2-(1H-pyrazol-4-yl)-N-(3-(pyridin-2-yl)-1-(2,2,2-trifluoroethyl)-1H-pyrazol-4-yl)thiazole-4-carboxamide]
EC50 [1]: 0.311 µM | EC50 ([2]; Homo sapiens, 18 h): 0.0333 µM

O=C(Nc1cn([C@H]2CC[C@H](O)C2)nc1-c1ccccn1)c1ccc(-c2cn[nH]c2)o1 [Compound I-136, N-(1-((1S,3S)-3-hydroxycyclopentyl)-3-(pyridin-2-yl)-1H-pyrazol-4-yl)-5-(1H-pyrazol-4-yl)furan-2-carboxamide formate]
EC50 [1]: 0.0448 µM | EC50 ([2]; Homo sapiens, 18 h): 0.0878 µM
